Laboratory results published in patent US7879846B2, “Serine hydrolase inhibitors” (Kyorin Pharmaceutical Co.., Ltd., priority 2006, dated 2011).

Molecular target: T1, Human sputum neutrophil elastase (Homo sapiens, UniProt P08246)
T1 construct: purchased Elastin Products Co; host or cells: human sputum (natural source)
T1 sequence (P08246 30-247 limits assumed): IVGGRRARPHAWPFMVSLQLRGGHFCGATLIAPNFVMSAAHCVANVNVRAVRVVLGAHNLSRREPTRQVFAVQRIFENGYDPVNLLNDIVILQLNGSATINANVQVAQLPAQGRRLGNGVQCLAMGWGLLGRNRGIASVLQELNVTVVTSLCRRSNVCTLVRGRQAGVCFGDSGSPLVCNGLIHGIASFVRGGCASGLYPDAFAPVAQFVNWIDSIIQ
Experiment: Inhibitor IC50 against human neutrophil elastase (fluorogenic MeOSuc-AAPV-AMC substrate)
Assay type: biochemical
Settings: 20 min preincubation, read-out: HNE IC50
Experimental: Determination of Inhibitor IC50 Values Against Human Neutrophil Elastase
Human sputum neutrophil elastase (Elastin Products Co.) was diluted into Assay Buffer A (200 mM Tris pH 7.4, 1 mg/ml BSA) to a working concentration of 0.55 U/ml. […] DMSO alone was used as the negative control. MeOSuc-AAPV-AMC (Bachem) substrate was dissolved in DMSO to 20 mM and further diluted to 1 mM in Assay Buffer A immediately before use. Substrate was added to the elastase assay at a final concentration of 1×10^−4 M. The reaction was allowed to proceed for 20 minutes at room temperature and then quenched with acetic acid at a final concentration of 3% (v/v). […] Fluorescence intensity versus inhibitor concentration was plotted and fit to the Hill equation to quantify IC50 values.

IC50 [nM] | SMILES
61 to 150 | COc1cc(C(C)C)c2c(=O)oc(-c3cccnc3N(C)CCN(C)C)nc2c1 [Compound 118]
< 15 | CCc1cc(OC)cc2nc(-c3cccnc3N3CCCN(C)CC3)oc(=O)c12 [Compound 195]
< 15 | CCc1cc(OC)cc2nc(-c3cccnc3N(C)CC3CCN(C)C3)oc(=O)c12 (stereo not drawn) [Compound 244]
61 to 150 | O=c1oc(-c2cccnc2-n2ccnc2)nc2cccc(Br)c12 [Compound 72]
< 15 | CCc1cc(OC)cc2nc(-c3cccnc3N3CC[C@@H](N(CCO)CCO)C3)oc(=O)c12 [Compound 268]
16 to 60 | CCc1cc(OC)cc2nc(-c3cccnc3N3CCC(CCCC(=O)O)CC3)oc(=O)c12 [Compound 225]
< 15 | CCc1cc(OC)cc2nc(-c3cccnc3N3CC[C@H](N4CCS(=O)(=O)CC4)C3)oc(=O)c12 [Compound 264]
61 to 150 | COc1cc(C(C)C)c2c(=O)oc(-c3cccnc3N3CCCN(C)CC3)nc2c1 [Compound 122]
< 15 | CCc1cccc2nc(-c3cccnc3N3CCCN(C)CC3)oc(=O)c12 [Compound 92]
16 to 60 | CCc1cc(OC)cc2nc(-c3ccc(N4CCN(C)CC4)nc3)oc(=O)c12 [Compound 207]
< 15 | CCc1cc(OC)cc2nc(-c3cccnc3N3CCC(O)CC3)oc(=O)c12 [Compound 214]
16 to 60 | COC(=O)[C@H]1CCCN1c1ncccc1-c1nc2cccc(C)c2c(=O)o1 [Compound 33]
< 15 | CCc1cccc2nc(-c3cccnc3N3CCN(CCN(C)C)CC3)oc(=O)c12 [Compound 162]
< 15 | CCc1cc(OC)cc2nc(-c3cccnc3N3CC[N+](C)(CC4OCCO4)CC3)oc(=O)c12 [Compound 231]
16 to 60 | CCc1cc(OC)cc2nc(-c3cccnc3N3C[C@@H](CNC4CC4)[C@H](C)C3)oc(=O)c12 [Compound 259]
61 to 150 | COc1cc(C2CCC2)c2c(=O)oc(-c3cccnc3N3CCN(CCN(C)C)CC3)nc2c1 [Compound 186]
< 15 | CCc1cc(OC)cc2nc(-c3cccnc3N3CCN(CC4CCCO4)CC3)oc(=O)c12 (stereo not drawn) [Compound 218]
> 150 | Cc1cccnc1-c1nc2cccc(C)c2c(=O)o1 [Compound 19]
< 15 | CCc1cc(OC)cc2nc(-c3cccnc3N3CCC(CCN(C)C)CC3)oc(=O)c12 [Compound 248]

More lines, now with the values behind:

SMILES | IC50 [nM]
C=CCN1C[C@@H](C)N(c2ncccc2-c2nc3cc(OC)cc(CC)c3c(=O)o2)C[C@H]1C [Compound 217] | < 15
CCc1cccc2nc(-c3cccnc3N3CCC[C@H]3CN3CCCC3)oc(=O)c12 [Compound 98] | < 15
CCc1cc(OC)cc2nc(-c3cccnc3N3CC[C@@H](N4CCS(=O)(=O)CC4)C3)oc(=O)c12 [Compound 269] | < 15
Cc1cccc2nc(-c3cnccn3)oc(=O)c12 [Compound 5] | 61 to 150
Cc1cccc2nc(-c3cc[n+]([O-])cc3)oc(=O)c12 [Compound 6] | > 150
CCc1cccc2nc(-c3cccnc3N3CC[N+](C)(C)CC3)oc(=O)c12 [Compound 95] | < 15
CCCc1cc(OC)cc2nc(-c3cccnc3N3CCCN(C)CC3)oc(=O)c12 [Compound 156] | 61 to 150
CCc1cc(OC)cc2nc(-c3cccnc3N3CCN(c4cccnc4)CC3)oc(=O)c12 [Compound 240] | < 15
COc1cc(C(C)C)c2c(=O)oc(-c3cccnc3N(C)C3CCN(C)C3)nc2c1 (stereo not drawn) [Compound 117] | 61 to 150
CCCN1CCN(c2ncccc2-c2nc3cc(OC)cc(CC)c3c(=O)o2)CC1 [Compound 222] | 16 to 60
CCc1cccc2nc(-c3cccnc3N3CCN4CCCC4C3)oc(=O)c12 (stereo not drawn) [Compound 104] | < 15
COc1cc(C(C)C)c2c(=O)oc(-c3cnn(C)c3N(C)CCN(C)C)nc2c1 [Compound 124] | > 150
CCc1cc(OC)cc2nc(-c3cccnc3N3C[C@H](CNC4CC4)[C@H](F)C3)oc(=O)c12 [Compound 258] | 16 to 60
COc1cc(C2CCC2)c2c(=O)oc(-c3cccnc3N3CC[C@@H](N(C)C)C3)nc2c1 [Compound 175] | > 150
COc1cc(C2CC2)c2c(=O)oc(-c3cccnc3N3CC[C@@H](N(C)C)C3)nc2c1 [Compound 164] | 61 to 150
C=CCN1CCN(c2ncccc2-c2nc3cc(OC)cc(CC)c3c(=O)o2)CC1 [Compound 193] | < 15
CCc1cccc2nc(-c3cccnc3-n3cc[n+](Cc4ccc(Cl)cc4)c3)oc(=O)c12 [Compound 94] | 16 to 60
Cc1cccc2nc(-c3cccnc3-n3cc[n+](C)c3)oc(=O)c12 [Compound 65] | > 150
CCCc1cc(OC)cc2nc(-c3cccnc3N3CCN(CCOC)CC3)oc(=O)c12 [Compound 150] | 61 to 150
CCc1cc(OC)cc2nc(-c3cccnc3N3CCC(CCN4CCCC4)CC3)oc(=O)c12 [Compound 257] | < 15
CCc1cc(OC)cc2nc(-c3cccnc3N(C)CCN(C)C)oc(=O)c12 [Compound 239] | < 15

SMILES | IC50 [nM]
COc1cc(C2CC2)c2c(=O)oc(-c3cccnc3N3CCN(CCN(C)C)CC3)nc2c1 [Compound 170] | 61 to 150
COc1cccc2nc(-c3cccnc3N3CCC[C@H]3C(=O)OC(C)(C)C)oc(=O)c12 [Compound 42] | > 150
Cc1cccc2nc(-c3cccnc3Cl)oc(=O)c12 [Compound 20] | 16 to 60
COc1cc(C2CCC2)c2c(=O)oc(-c3cccnc3N3CCC[C@H](C(=O)O)C3)nc2c1 [Compound 174] | > 150
CCc1cc(OC)cc2nc(-c3cccnc3N3CCC[C@H]3CN3CCCC3)oc(=O)c12 [Compound 271] | < 15
O=c1oc(-c2ccccn2)nc2ccccc12 [Compound 17] | > 150
CCc1cccc2nc(-c3cccnc3N(C)C3CCN(C)C3)oc(=O)c12 (stereo not drawn) [Compound 153] | 16 to 60
CCc1cc(OC)cc2nc(-c3cccnc3N3CCN(c4nccs4)CC3)oc(=O)c12 [Compound 250] | < 15
CCc1cc(OC)cc2nc(-c3cccnc3N3CCC(N4CCCCC4)CC3)oc(=O)c12 [Compound 216] | < 15
C#CCCN1CCN(c2ncccc2-c2nc3cc(OC)cc(CC)c3c(=O)o2)CC1 [Compound 228] | < 15
CCc1cc(OC)cc2nc(-c3cccnc3N3CCC(S(=O)(=O)O)CC3)oc(=O)c12 [Compound 209] | 16 to 60
CCc1cc(OC)cc2nc(-c3cccnc3N3CCN(CCNC(=O)OC(C)(C)C)CC3)oc(=O)c12 [Compound 202] | 16 to 60
COc1cc(C2CC2)c2c(=O)oc(-c3cccnc3N3CCCN(C)CC3)nc2c1 [Compound 140] | 61 to 150
CCc1cccc2nc(-c3cccnc3N3CC[C@H](N(C)C)C3)oc(=O)c12 [Compound 91] | < 15
C#CCN1CCN(c2ncccc2-c2nc3cc(OC)cc(CC)c3c(=O)o2)CC1 [Compound 233] | 16 to 60
CCc1cccc2nc(-c3cccnc3-n3cc[n+](C)c3)oc(=O)c12 [Compound 84] | 16 to 60
Cc1ccc(Sc2ncccc2-c2nc3cccc(Cl)c3c(=O)o2)cc1 [Compound 28] | 61 to 150
COCCN1CCN(c2ncccc2-c2nc3cc(OC)cc(C(C)C)c3c(=O)o2)CC1 [Compound 113] | 61 to 150
CCc1cc(OC)cc2nc(-c3cccnc3N3CCC(CN4CCCC4)CC3)oc(=O)c12 [Compound 272] | < 15
CCc1cc(OC)cc2nc(-c3cccnc3N3CCN(c4ccccc4)CC3)oc(=O)c12 [Compound 223] | 61 to 150
